Test results reported in PubChem BioAssay AID1963828 (Molecular Pharmacology Branch, DTP, NCI, 2024).
pIC50: −log10 of the molar value.

Test system: 991263-137-R1-J2-PDC complex spheroid viability
Assay: Anticancer human tumor 991263-137-R1-J2-PDC patient-derived colon adenocarcinoma cell line growth inhibition [POLQ]
Conditions: for pIC50: curve of first compound; for viability, T/C: stronger effect = lower value
Summary of the method: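 Patient-derived tumour cells were co-cultured with HUVEC and mesenchymal stem cells as multicellular spheroids at 37 °C. They were treated with POLQ inhibitors (novobiocin, ART-558, RP6685) alone or combined with other agents. Top concentrations were at or near clinical Cmax (otherwise 10 microM; SN-38 at 1 microM), decreasing in half-log steps.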

[1] = second compound 0.0316 µM, first compound 0.0316 µM
[2] = second compound 0.0316 µM, first compound 0.1 µM
[3] = second compound 0.0316 µM, first compound 0.316 µM
[4] = second compound 0.0316 µM, first compound 1 µM
[5] = second compound 0.0316 µM, first compound 3.16 µM
[6] = second compound 0.0316 µM, first compound 10 µM
[7] = second compound 0.1 µM, first compound 0.0316 µM
[8] = second compound 0.1 µM, first compound 0.1 µM
[9] = second compound 0.1 µM, first compound 0.316 µM
[10] = second compound 0.1 µM, first compound 1 µM
[11] = second compound 0.1 µM, first compound 3.16 µM
[12] = second compound 0.1 µM, first compound 10 µM
[13] = second compound 0.316 µM, first compound 0.0316 µM
[14] = second compound 0.316 µM, first compound 0.1 µM
[15] = second compound 0.316 µM, first compound 0.316 µM
[16] = second compound 0.316 µM, first compound 1 µM
[17] = second compound 0.316 µM, first compound 3.16 µM
[18] = second compound 0.316 µM, first compound 10 µM
[19] = second compound 1 µM, first compound 0.0316 µM
[20] = second compound 1 µM, first compound 0.1 µM
[21] = second compound 1 µM, first compound 0.316 µM
[22] = second compound 1 µM, first compound 1 µM
[23] = second compound 1 µM, first compound 3.16 µM
[24] = second compound 1 µM, first compound 10 µM
[25] = second compound 3.16 µM, first compound 0.0316 µM
[26] = second compound 3.16 µM, first compound 0.1 µM
[27] = second compound 3.16 µM, first compound 0.316 µM
[28] = second compound 3.16 µM, first compound 1 µM
[29] = second compound 3.16 µM, first compound 3.16 µM
[30] = second compound 3.16 µM, first compound 10 µM
[31] = second compound 10 µM, first compound 0.0316 µM
[32] = second compound 10 µM, first compound 0.1 µM
[33] = second compound 10 µM, first compound 0.316 µM
[34] = second compound 10 µM, first compound 1 µM
[35] = second compound 10 µM, first compound 3.16 µM
[36] = second compound 10 µM, first compound 10 µM
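Note: spheroids exposed to compounds for 7 days before readout.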
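Throughout, for viability, T/C: 100% = DMSO vehicle control viability.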

With `C#Cc1c(F)ccc2cc(O)cc(-c3ncc4c(N5CC6CCC(C5)N6)nc(OCC56CCCN5CC(F)C6)nc4c3F)c12` (stereo not drawn) + Cc1cccc(N(C)C(=O)C2C(O)CCN2c2nc(C)cc(C(F)(F)F)c2C#N)c1 the pIC50 (second compound 0.0316 µM) was < 5.00, the pIC50 (second compound 0.1 µM) was < 5.00 and the pIC50 (second compound 0.316 µM) was < 5.00. For the same molecule, the pIC50 (second compound 1 µM) was < 5.00, the pIC50 (second compound 3.16 µM) was < 5.00 and the pIC50 (second compound 10 µM) was < 5.00. It also gave a viability, T/C [1] of 110%, a viability, T/C [2] of 95.5% and a viability, T/C [3] of 104%. It also gave a viability, T/C [4] of 104%, a viability, T/C [5] of 92.9% and a viability, T/C [6] of 100%. For the same molecule, the viability, T/C [7] was 97.8%, the viability, T/C [8] was 104% and the viability, T/C [9] was 109%. For the same molecule, the viability, T/C [10] was 76.1%, the viability, T/C [11] was 106% and the viability, T/C [12] was 92.2%. For the same molecule, the viability, T/C [13] was 101%, the viability, T/C [14] was 106% and the viability, T/C [15] was 89.8%. The viability, T/C [16] was 93.5%, the viability, T/C [17] was 97.7% and the viability, T/C [18] was 95.8%. It also gave a viability, T/C [19] of 93.8%, a viability, T/C [20] of 95% and a viability, T/C [21] of 103%. The viability, T/C [22] was 95.6%, the viability, T/C [23] was 99.9% and the viability, T/C [24] was 98.2%. The viability, T/C [25] was 95%, the viability, T/C [26] was 117% and the viability, T/C [27] was 121%. The viability, T/C [28] was 93.2%, the viability, T/C [29] was 98.7% and the viability, T/C [30] was 105%. The viability, T/C [31] was 94.8%, the viability, T/C [32] was 102% and the viability, T/C [33] was 106%. It also gave a viability, T/C [34] of 90.1%, a viability, T/C [35] of 106% and a viability, T/C [36] of 79.7%.

`CC1COCCN1c1cc(C2(O)CC3CCC(C2)O3)c2cnn(-c3ccn[nH]3)c2n1` (stereo not drawn) + Cc1cccc(N(C)C(=O)C2C(O)CCN2c2nc(C)cc(C(F)(F)F)c2C#N)c1 was tested, and the pIC50 (second compound 0.0316 µM) was 5.91, the pIC50 (second compound 0.1 µM) was 5.66 and the pIC50 (second compound 0.316 µM) was 5.79. It also gave a pIC50 (second compound 1 µM) of 5.51, a pIC50 (second compound 3.16 µM) of 5.59 and a pIC50 (second compound 10 µM) of 6.02. The viability, T/C [1] was 107%, the viability, T/C [2] was 84.8% and the viability, T/C [3] was 67.5%. It also gave a viability, T/C [4] of 55.8%, a viability, T/C [5] of 35.8% and a viability, T/C [6] of 30.1%. The viability, T/C [7] was 110%, the viability, T/C [8] was 103% and the viability, T/C [9] was 82.3%. It also gave a viability, T/C [10] of 61.1%, a viability, T/C [11] of 46.4% and a viability, T/C [12] of 29.2%. For the same molecule, the viability, T/C [13] was 107%, the viability, T/C [14] was 110% and the viability, T/C [15] was 75.9%. The viability, T/C [16] was 59.2%, the viability, T/C [17] was 42.5% and the viability, T/C [18] was 28.3%. The viability, T/C [19] was 92%, the viability, T/C [20] was 98.2% and the viability, T/C [21] was 87.1%. It also gave a viability, T/C [22] of 67.4%, a viability, T/C [23] of 52.5% and a viability, T/C [24] of 28.6%. The viability, T/C [25] was 93.4%, the viability, T/C [26] was 85.5% and the viability, T/C [27] was 74.4%. It also gave a viability, T/C [28] of 61.6%, a viability, T/C [29] of 47.4% and a viability, T/C [30] of 34.6%. It also gave a viability, T/C [31] of 90.9%, a viability, T/C [32] of 98.8% and a viability, T/C [33] of 75.2%. It also gave a viability, T/C [34] of 48.2%, a viability, T/C [35] of 37.7% and a viability, T/C [36] of 25.9%.

With `CCc1cc2c(N3CCc4c(cc(Cn5ccnc5)cc4-c4cn(C)nc4C(F)(F)F)C3=O)cc(C)nc2c(OC)n1` + Cc1cccc(N(C)C(=O)C2C(O)CCN2c2nc(C)cc(C(F)(F)F)c2C#N)c1 the pIC50 (second compound 0.0316 µM) was < 5.00, the pIC50 (second compound 0.1 µM) was < 5.00 and the pIC50 (second compound 0.316 µM) was < 5.00. For the same molecule, the pIC50 (second compound 1 µM) was < 5.00, the pIC50 (second compound 3.16 µM) was < 5.00 and the pIC50 (second compound 10 µM) was < 5.00. For the same molecule, the viability, T/C [1] was 99.4%, the viability, T/C [2] was 111% and the viability, T/C [3] was 95.7%. For the same molecule, the viability, T/C [4] was 97.9%, the viability, T/C [5] was 96.7% and the viability, T/C [6] was 89.5%. It also gave a viability, T/C [7] of 109%, a viability, T/C [8] of 107% and a viability, T/C [9] of 96.2%. It also gave a viability, T/C [10] of 87.9%, a viability, T/C [11] of 98% and a viability, T/C [12] of 99.8%. It also gave a viability, T/C [13] of 113%, a viability, T/C [14] of 93.8% and a viability, T/C [15] of 101%. The viability, T/C [16] was 91.4%, the viability, T/C [17] was 107% and the viability, T/C [18] was 88.9%. It also gave a viability, T/C [19] of 100%, a viability, T/C [20] of 101% and a viability, T/C [21] of 84.5%. For the same molecule, the viability, T/C [22] was 98.3%, the viability, T/C [23] was 104% and the viability, T/C [24] was 82%. The viability, T/C [25] was 101%, the viability, T/C [26] was 96% and the viability, T/C [27] was 106%. The viability, T/C [28] was 111%, the viability, T/C [29] was 95.3% and the viability, T/C [30] was 96.7%. For the same molecule, the viability, T/C [31] was 95.7%, the viability, T/C [32] was 105% and the viability, T/C [33] was 90.9%. For the same molecule, the viability, T/C [34] was 90.7%, the viability, T/C [35] was 84.5% and the viability, T/C [36] was 92.1%.

`O=C(Nc1ccc(O)c(NS(=O)(=O)c2ccc(F)cc2)c1)c1ccc(-c2ccccc2)cc1` + Cc1cccc(N(C)C(=O)C2C(O)CCN2c2nc(C)cc(C(F)(F)F)c2C#N)c1 was tested, and the pIC50 (second compound 0.0316 µM) was < 5.00, the pIC50 (second compound 0.1 µM) was < 5.00 and the pIC50 (second compound 0.316 µM) was < 5.00. For the same molecule, the pIC50 (second compound 1 µM) was < 5.00, the pIC50 (second compound 3.16 µM) was < 5.00 and the pIC50 (second compound 10 µM) was < 5.00. For the same molecule, the viability, T/C [1] was 103%, the viability, T/C [2] was 99.6% and the viability, T/C [3] was 90.9%. It also gave a viability, T/C [4] of 101%, a viability, T/C [5] of 87.2% and a viability, T/C [6] of 92%. For the same molecule, the viability, T/C [7] was 96.8%, the viability, T/C [8] was 95.7% and the viability, T/C [9] was 113%. For the same molecule, the viability, T/C [10] was 94.8%, the viability, T/C [11] was 99% and the viability, T/C [12] was 91%. For the same molecule, the viability, T/C [13] was 98.3%, the viability, T/C [14] was 97.5% and the viability, T/C [15] was 103%. The viability, T/C [16] was 80.9%, the viability, T/C [17] was 99.6% and the viability, T/C [18] was 86.5%. It also gave a viability, T/C [19] of 99.2%, a viability, T/C [20] of 99% and a viability, T/C [21] of 106%. It also gave a viability, T/C [22] of 94.2%, a viability, T/C [23] of 103% and a viability, T/C [24] of 80.1%. It also gave a viability, T/C [25] of 96.4%, a viability, T/C [26] of 96.2% and a viability, T/C [27] of 95.2%. The viability, T/C [28] was 109%, the viability, T/C [29] was 105% and the viability, T/C [30] was 85.8%. For the same molecule, the viability, T/C [31] was 93.7%, the viability, T/C [32] was 95.9% and the viability, T/C [33] was 90.5%. It also gave a viability, T/C [34] of 96.8%, a viability, T/C [35] of 105% and a viability, T/C [36] of 87.5%.
